Key:
rat [1] = details: Prenatal developmental toxicity study, sprague dawley, Oral, Feed, dose end: 22 GD
mouse [2] = details: Carcinogenicity; cd1; Oral; Feed; dose end: 18 month; group: systemic; systemic / in life observation / body weight / body weight gain + systemic / in life observation / clinical signs / fur (altered appearance…
rat [3] = details: Combined chronic toxicity/carcinogenicity, sprague dawley, Oral, Feed, dose end: 24 month, group: systemic
dog [4] = details: Subchronic oral toxicity in nonrodent, beagle, Feed, dose end: 13 week, group: systemic, systemic / hematology / anemia / anemia - hemolytic + systemic / hematology / erythrocyte (rbc) count differential / erythrocyte (rbc) + …
rat [5] = details: Subchronic oral toxicity in rodents, sprague dawley, Feed, dose end: 14 week, group: systemic
rat [6] = details: Prenatal developmental toxicity study, sprague dawley, Oral, Gavage/Intubation, dose end: 21 GD
rabbit = details: Prenatal developmental toxicity study, new zealand white, Oral, Gavage/Intubation, dose end: 28 GD
rat [7] = details: Subchronic oral toxicity in rodents, sprague dawley, [Not Specified], dose end: 90 day, group: systemic
rat [8] = details: Subchronic oral toxicity in rodents, sprague dawley, Feed, dose end: 13 week, group: systemic
rat [9] = details: Subchronic oral toxicity in rodents, other, Feed, dose end: 13 week, group: systemic
mouse [10] = details: Subchronic oral toxicity in rodents, cd1, Feed, dose end: 91 day, group: systemic
rat [11] = details: Prenatal developmental toxicity study, sprague dawley, Oral, Gavage/Intubation, dose end: 21 GD; remark: listed apart in the source
dog [12] = details: Chronic toxicity, beagle, Oral, Feed, dose end: 52 week, group: systemic
[13] = group: developmental, systemic / in life observation / body weight / fetal weight
[14] = group: maternal, systemic / in life observation / body weight / body weight + systemic / in life observation / body weight / body weight gain + systemic / in…
[15] = group: maternal, systemic / in life observation / body weight / body weight gain
[16] = systemic / hematology / erythrocyte (rbc) count differential / erythrocyte (rbc) + systemic / hematology / hematocrit (hct) / hematocrit (…
[17] = systemic / pathology microscopic / spleen / pigmentation
[18] = systemic / in life observation / body weight / body weight gain
[19] = systemic / in life observation / body weight / body weight gain + systemic / in life observation / body weight / body weight + systemic / in…
[20] = group: developmental, developmental / developmental malformation / bone / incomplete ossification + systemic / in life observation / body weight / fetal weight
[21] = group: maternal, systemic / in life observation / body weight / body weight gain + systemic / in life observation / food consumption / food consumption + …
[22] = systemic / hematology / methemoglobin / methemoglobin
[23] = systemic / in life observation / body weight / body weight + systemic / in life observation / body weight / body weight gain + systemic / in…
[24] = systemic / pathology microscopic / spleen / hematopoietic cell proliferation + systemic / pathology microscopic / spleen / pigmentation
[25] = systemic / hematology / erythrocyte (rbc) count differential / erythrocyte (rbc) + systemic / hematology / heinz body / heinz body + …
[26] = systemic / organ weight / liver / absolute + systemic / organ weight / liver / relative to body weight + systemic / organ weight / liver / …

Compound: COC(=O)N(C(=O)N1CO[C@@]2(C(=O)OC)Cc3cc(Cl)ccc3C2=N1)c1ccc(OC(F)(F)F)cc1 [Indoxacarb]
- LEL (rat [1]; [13]): 4.14 mg/kg/day
- LOAEL (rat [1]; [13]): 4.14 mg/kg/day
- NEL (rat [1]; [13]): 2.18 mg/kg/day
- NOAEL (rat [1]; [13]): 2.18 mg/kg/day
- LOAEL (rat [1]; [14]): 2.18 mg/kg/day
- NOAEL (rat [1]; [14]): 1.11 mg/kg/day
- LEL (rat [1]; [15]): 1.11 mg/kg/day
- NEL (rat [1]; [15]): < 1.11 mg/kg/day
- LEL (mouse [2]): 13.8 mg/kg/day
- LOAEL (mouse [2]): 13.8 mg/kg/day
- NEL (mouse [2]): 2.63 mg/kg/day
- NOAEL (mouse [2]): 2.63 mg/kg/day
- LOAEL (rat [3]; [16]): 2.13 mg/kg/day
- NOAEL (rat [3]; [16]): 1.04 mg/kg/day
- LEL (rat [3]; [17]): 0.798 mg/kg/day
- LEL (dog [4]): 19 mg/kg/day
- LOAEL (dog [4]): 19 mg/kg/day
- NEL (dog [4]): 5 mg/kg/day
- NOAEL (dog [4]): 5 mg/kg/day
- LEL (rat [5]; [18]): 4.9 mg/kg/day
- LOAEL (rat [5]; [18]): 7.5 mg/kg/day
- NEL (rat [5]; [19]): 2.5 mg/kg/day
- NOAEL (rat [5]; [19]): 3.7 mg/kg/day
- LEL (rat [6]; [13]): 500 mg/kg/day
- LOAEL (rat [6]; [13]): > 1000 mg/kg/day
- NEL (rat [6]; [13]): 100 mg/kg/day
- NOAEL (rat [6]; [13]): ≥ 1000 mg/kg/day
- LEL (rat [6]; [14]): 100 mg/kg/day
- LOAEL (rat [6]; [14]): 100 mg/kg/day
- NEL (rat [6]; [14]): 10 mg/kg/day
- NOAEL (rat [6]; [14]): 10 mg/kg/day
- LEL (rabbit; [20]): 1000 mg/kg/day
- LOAEL (rabbit; [20]): 1000 mg/kg/day
- NEL (rabbit; [20]): 500 mg/kg/day
- NOAEL (rabbit; [20]): 500 mg/kg/day
- LOAEL (rabbit; group: maternal, systemic / in life observation / body weight / body weight gain + systemic / in life observation / food consumption / food consumption): 1000 mg/kg/day
- LEL (rabbit; [21]): 1000 mg/kg/day
- NEL (rabbit; [21]): 500 mg/kg/day
- NOAEL (rabbit; [21]): 500 mg/kg/day
- LEL (rat [7]; [22]): 0.56 mg/kg/day
- NEL (rat [7]; [22]): < 0.56 mg/kg/day
- LOAEL (rat [7]; [23]): 4.1 mg/kg/day
- NOAEL (rat [7]; [23]): 1.7 mg/kg/day
- LOAEL (rat [8]; [23]): 3.78 mg/kg/day
- NOAEL (rat [8]; [23]): 2.13 mg/kg/day
- LEL (rat [8]; [24]): 0.76 mg/kg/day
- NEL (rat [8]; [24]): < 0.76 mg/kg/day
- LEL (rat [9]; [16]): 1.5 mg/kg/day
- LOAEL (rat [9]; [23]): 6.25 mg/kg/day
- NEL (rat [9]; [23]): 0.75 mg/kg/day
- NOAEL (rat [9]; [23]): 3 mg/kg/day
- LOAEL (mouse [10]; [23]): 30 mg/kg/day
- NOAEL (mouse [10]; [23]): 16 mg/kg/day
- LEL (mouse [10]; [17]): 12 mg/kg/day
- NEL (mouse [10]; systemic / pathology microscopic / spleen / pigmentation + systemic / pathology microscopic / spleen / hyperplasia): 5.5 mg/kg/day
- LEL (rat [11]; [13]): 4 mg/kg/day
- LOAEL (rat [11]; [13]): 4 mg/kg/day
- NEL (rat [11]; [13]): 2 mg/kg/day
- NOAEL (rat [11]; [13]): 2 mg/kg/day
- LEL (rat [11]; [14]): 4 mg/kg/day
- LOAEL (rat [11]; [14]): 4 mg/kg/day
- NEL (rat [11]; [14]): 2 mg/kg/day
- NOAEL (rat [11]; [14]): 2 mg/kg/day
- LOAEL (dog [12]; [25]): 18 mg/kg/day
- NOAEL (dog [12]; [25]): 2.3 mg/kg/day
- LEL (dog [12]; [26]): 1.3 mg/kg/day
- NEL (dog [12]; [26]): < 1.3 mg/kg/day
